Measured values: patent US5424456A, “N-arylalkylderivatives of 2-aminomethyl-2,3-dihydro-1,4-benzodioxine and the process of preparation thereof” (Vyzkumny Ustav Pro Farmacii A Biochemii s.p., priority 1991, dated 1995)
Values belong to the compound of their own block, whether it stands above or below them.

Columns and labels:
blood pressure [1] = assay: Hypotensive activity, pentobarbital anaesthesized dogs; assay type: in vivo, dog; conditions: i.v.
Source text: (§1) b) The blood pressure of pentobarbital anaesthesized dogs was registered invasively in arteria femoralis. The average decrease in systolic (SBP) arid diastolic (DBP) blood pressure expressed in per cents of the starting blood pressure level after intravenous and oral administration is shown in Tables 5 and 6.

α-adrenergic = target: T1, α-adrenergic (Rattus norvegicus, UniProt P23944); assay: α-adrenergic blocking activity, norepinephrine-induced contraction of helically cut rat aortic strip; conditions: 37° C., cumulative doses, read-out: IC50 (concentration causing 50% relaxation)
T1 construct: helically cut rat aortic strip; from tissue; host or cells: rat aorta (helically cut strip)
T1 sequence (P23944 1-561): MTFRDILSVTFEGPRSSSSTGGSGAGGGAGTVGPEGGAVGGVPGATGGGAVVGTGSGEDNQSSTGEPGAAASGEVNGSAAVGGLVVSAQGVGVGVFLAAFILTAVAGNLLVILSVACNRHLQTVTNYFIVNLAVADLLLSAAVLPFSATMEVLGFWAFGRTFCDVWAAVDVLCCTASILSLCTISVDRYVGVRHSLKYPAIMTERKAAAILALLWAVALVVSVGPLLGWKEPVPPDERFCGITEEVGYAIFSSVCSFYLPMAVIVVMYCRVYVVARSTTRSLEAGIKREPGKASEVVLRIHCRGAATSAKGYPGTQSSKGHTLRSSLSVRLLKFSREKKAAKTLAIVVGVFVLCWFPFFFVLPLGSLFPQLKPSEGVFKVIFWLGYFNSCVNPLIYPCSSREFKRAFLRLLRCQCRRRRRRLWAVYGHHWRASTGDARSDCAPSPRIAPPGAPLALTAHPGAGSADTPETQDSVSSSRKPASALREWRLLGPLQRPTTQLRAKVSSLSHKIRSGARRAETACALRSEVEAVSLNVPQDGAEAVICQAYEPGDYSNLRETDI
Protocol: a) The α-adrenergic blocking activity of the compounds was tested using a helically cut rat aortic strip in a Krebs-Henselheit solution at 37° C., bubbled with a mixture of 95% O2 and 5% CO2. Norepinephrine induced contractions were detected isometrically. The compounds were added in cumulative doses and the relaxing activity was expressed in per cents of the maximum norepinephrine contraction.

calcium channel = target: T2, calcium channel (Rattus norvegicus, UniProt P22002); assay: Calcium channel blocking activity, K+ depolarization-induced contraction of helically cut rat aortic strip; conditions: Krebs-Henselheit solution, 37° C., cumulative doses, read-out: IC50 (50% decrease of contraction of the aortic strip)
T2 construct: helically cut rat aortic strip; from tissue; host or cells: rat aorta (helically cut strip)
T2 sequence (P22002 whole entry): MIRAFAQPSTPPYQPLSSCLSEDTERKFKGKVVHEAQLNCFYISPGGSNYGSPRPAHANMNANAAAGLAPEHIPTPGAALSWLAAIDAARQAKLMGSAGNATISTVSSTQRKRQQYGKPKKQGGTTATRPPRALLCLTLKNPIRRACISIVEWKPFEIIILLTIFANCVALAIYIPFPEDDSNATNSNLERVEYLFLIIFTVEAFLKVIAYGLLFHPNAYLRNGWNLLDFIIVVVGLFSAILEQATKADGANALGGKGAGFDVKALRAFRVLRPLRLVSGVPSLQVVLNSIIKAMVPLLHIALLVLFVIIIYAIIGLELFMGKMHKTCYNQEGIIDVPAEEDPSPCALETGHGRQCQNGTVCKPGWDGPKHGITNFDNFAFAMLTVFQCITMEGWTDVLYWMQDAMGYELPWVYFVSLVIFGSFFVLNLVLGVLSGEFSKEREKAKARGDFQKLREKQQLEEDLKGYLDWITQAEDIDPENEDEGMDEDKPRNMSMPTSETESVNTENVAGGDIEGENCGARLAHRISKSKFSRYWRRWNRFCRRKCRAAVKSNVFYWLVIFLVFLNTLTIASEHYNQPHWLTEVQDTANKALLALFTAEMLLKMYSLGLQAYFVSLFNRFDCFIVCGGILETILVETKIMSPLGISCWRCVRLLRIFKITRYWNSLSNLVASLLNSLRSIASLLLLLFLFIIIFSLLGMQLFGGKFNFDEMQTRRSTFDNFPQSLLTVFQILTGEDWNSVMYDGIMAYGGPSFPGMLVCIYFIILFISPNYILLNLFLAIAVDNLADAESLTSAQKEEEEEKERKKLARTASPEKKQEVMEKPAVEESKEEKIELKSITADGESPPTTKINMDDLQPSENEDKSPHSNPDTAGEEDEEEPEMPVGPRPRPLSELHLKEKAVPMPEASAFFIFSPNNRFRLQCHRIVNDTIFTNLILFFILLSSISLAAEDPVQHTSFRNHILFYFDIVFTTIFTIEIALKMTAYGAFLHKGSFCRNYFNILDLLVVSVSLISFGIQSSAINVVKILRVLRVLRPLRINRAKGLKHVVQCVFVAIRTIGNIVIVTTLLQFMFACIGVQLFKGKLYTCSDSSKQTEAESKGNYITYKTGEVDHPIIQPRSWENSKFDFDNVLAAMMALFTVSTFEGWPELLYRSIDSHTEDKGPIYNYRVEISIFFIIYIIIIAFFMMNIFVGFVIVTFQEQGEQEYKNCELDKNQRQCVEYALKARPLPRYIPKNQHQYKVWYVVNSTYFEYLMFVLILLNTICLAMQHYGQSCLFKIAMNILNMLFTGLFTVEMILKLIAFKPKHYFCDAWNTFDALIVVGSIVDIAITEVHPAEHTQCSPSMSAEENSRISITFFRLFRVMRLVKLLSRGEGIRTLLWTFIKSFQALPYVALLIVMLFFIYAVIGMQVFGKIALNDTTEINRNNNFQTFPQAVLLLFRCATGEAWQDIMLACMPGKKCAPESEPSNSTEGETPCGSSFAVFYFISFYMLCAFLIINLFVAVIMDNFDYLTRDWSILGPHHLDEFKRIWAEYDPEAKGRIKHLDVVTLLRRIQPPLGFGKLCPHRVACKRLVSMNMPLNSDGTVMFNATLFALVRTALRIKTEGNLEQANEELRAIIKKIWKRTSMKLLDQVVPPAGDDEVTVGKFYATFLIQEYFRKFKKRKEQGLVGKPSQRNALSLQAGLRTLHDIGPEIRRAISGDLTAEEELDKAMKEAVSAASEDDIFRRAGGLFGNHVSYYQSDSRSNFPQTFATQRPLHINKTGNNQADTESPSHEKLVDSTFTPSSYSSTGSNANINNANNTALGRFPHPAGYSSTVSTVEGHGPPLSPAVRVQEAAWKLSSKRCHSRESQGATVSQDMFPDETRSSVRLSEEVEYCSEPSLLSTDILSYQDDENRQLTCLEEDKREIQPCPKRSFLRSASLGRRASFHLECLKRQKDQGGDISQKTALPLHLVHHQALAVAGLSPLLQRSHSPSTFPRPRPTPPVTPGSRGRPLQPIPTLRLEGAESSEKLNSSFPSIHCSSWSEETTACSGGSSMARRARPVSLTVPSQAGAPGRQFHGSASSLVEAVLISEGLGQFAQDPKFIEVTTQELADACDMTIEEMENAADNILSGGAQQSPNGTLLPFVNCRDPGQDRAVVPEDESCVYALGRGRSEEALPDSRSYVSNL
T2 sequence (P54290 25-1091 partner): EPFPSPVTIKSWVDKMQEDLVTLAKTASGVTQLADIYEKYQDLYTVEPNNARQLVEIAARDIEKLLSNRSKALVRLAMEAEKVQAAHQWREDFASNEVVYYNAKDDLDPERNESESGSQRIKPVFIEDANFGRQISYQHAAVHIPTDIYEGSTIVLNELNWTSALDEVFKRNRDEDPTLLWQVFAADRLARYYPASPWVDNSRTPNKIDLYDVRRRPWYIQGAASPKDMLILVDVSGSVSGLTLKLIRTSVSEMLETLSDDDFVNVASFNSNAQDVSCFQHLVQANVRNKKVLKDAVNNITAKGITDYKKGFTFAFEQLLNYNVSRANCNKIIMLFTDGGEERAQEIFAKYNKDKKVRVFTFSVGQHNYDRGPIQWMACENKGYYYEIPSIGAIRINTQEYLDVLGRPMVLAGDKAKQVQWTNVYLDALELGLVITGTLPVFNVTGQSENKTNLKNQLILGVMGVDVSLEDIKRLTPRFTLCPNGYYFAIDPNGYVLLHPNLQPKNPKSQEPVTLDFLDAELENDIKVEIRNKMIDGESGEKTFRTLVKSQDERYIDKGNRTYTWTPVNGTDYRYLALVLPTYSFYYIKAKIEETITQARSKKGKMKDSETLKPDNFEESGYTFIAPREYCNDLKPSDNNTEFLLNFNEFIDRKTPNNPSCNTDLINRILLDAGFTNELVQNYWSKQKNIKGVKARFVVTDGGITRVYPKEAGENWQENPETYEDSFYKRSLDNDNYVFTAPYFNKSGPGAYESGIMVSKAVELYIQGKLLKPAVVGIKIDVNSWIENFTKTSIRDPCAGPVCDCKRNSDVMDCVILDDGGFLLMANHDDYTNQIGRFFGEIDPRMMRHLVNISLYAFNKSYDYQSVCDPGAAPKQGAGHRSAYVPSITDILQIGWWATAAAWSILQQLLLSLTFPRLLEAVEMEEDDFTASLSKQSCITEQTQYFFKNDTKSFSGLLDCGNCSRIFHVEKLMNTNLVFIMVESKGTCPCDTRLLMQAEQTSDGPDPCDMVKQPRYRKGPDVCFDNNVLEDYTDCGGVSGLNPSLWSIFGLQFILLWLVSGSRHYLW
Protocol: The calcium channel blocking activity of the compounds was tested using a helically cut rat aortic strip in Krebs-Henselheit solution at 37° C., bubbled with a mixture of 95% O2 and 5% CO2. The isometrically registered contractions were induced by K^(+). depolarization. The test compounds were applied in a cumulative doses and the vasodilating activity thereof was expressed in calculated concentration of the test compound, causing 50% decrease of contraction of the aortic strip (IC50).

blood pressure [2] = assay: Hypotensive activity, pentobarbital anaesthesized rabbits; assay type: in vivo, rabbit; conditions: i.v.
Source text: as §1, with “a)” for “b)”, “rabbits” for “dogs”, “and” for “arid”, “3” for “5”, “4.” for “6.”

[3] = test system: rat peripheral venous thrombosis; assay: Antithrombotic activity, rat peripheral venous thrombosis in closed abdominal part of vena cava; assay type: in vivo; conditions: po, rats, orally, read-out: statistically significant effective dose (mass of thrombi)
Protocol: The antithrombotic activity of the test compounds was established using the model of rat peripheral venous thrombosis in a closed abdominal part of vena cava. The thrombus was induced by intravenous administration of hypotonic solution of sodium chloride. The thrombus was freed 10 minutes after induction and weighted. The mass of thrombi in control animals was compared to the mass of thrombi of animals administered by the test compound. The statistically significant effective dose for compound VUFB 17951 was 0.5 mg/kg intravenously and 5 mg/kg orally and for the compound VUFB 17959 0.25 mg/kg and 1.0 mg/kg, respectively. The corresponding dose of a standard (Cilostazol, generic name, Merck index, 11th Edition, 2277) was 25 mg/kg orally.

[4] = 0.4 mg/kg, value 1 of 5 (heads 5/30/60/180 min; probably 1 min)
[5] = 0.4 mg/kg, value 2 of 5 (heads 5/30/60/180 min; probably 5 min)
[6] = 0.4 mg/kg, value 3 of 5 (heads 5/30/60/180 min; probably 30 min)
[7] = 0.4 mg/kg, value 4 of 5 (heads 5/30/60/180 min; probably 60 min)
[8] = 0.4 mg/kg, value 5 of 5 (heads 5/30/60/180 min; probably 180 min)
[9] = 4.0 mg/kg, value 1 of 5 (heads 5/30/60/180 min; probably 1 min)
[10] = 4.0 mg/kg, value 2 of 5 (heads 5/30/60/180 min; probably 5 min)
[11] = 4.0 mg/kg, value 3 of 5 (heads 5/30/60/180 min; probably 30 min)
[12] = 4.0 mg/kg, value 4 of 5 (heads 5/30/60/180 min; probably 60 min)
[13] = 4.0 mg/kg, value 5 of 5 (heads 5/30/60/180 min; probably 180 min)
[14] = 4.5 mg/kg, value 1 of 5 (heads 5/30/60/180 min; probably 1 min)
[15] = 4.5 mg/kg, value 2 of 5 (heads 5/30/60/180 min; probably 5 min)
[16] = 4.5 mg/kg, value 3 of 5 (heads 5/30/60/180 min; probably 30 min)
[17] = 4.5 mg/kg, value 4 of 5 (heads 5/30/60/180 min; probably 60 min)
[18] = 4.5 mg/kg, value 5 of 5 (heads 5/30/60/180 min; probably 180 min)
[19] = 4.6 mg/kg, value 1 of 5 (heads 5/30/60/180 min; probably 1 min)
[20] = 4.6 mg/kg, value 2 of 5 (heads 5/30/60/180 min; probably 5 min)
[21] = 4.6 mg/kg, value 3 of 5 (heads 5/30/60/180 min; probably 30 min)
[22] = 4.6 mg/kg, value 4 of 5 (heads 5/30/60/180 min; probably 60 min)
[23] = 4.6 mg/kg, value 5 of 5 (heads 5/30/60/180 min; probably 180 min)

Structure (SMILES): Cc1ccccc1C(C#N)(CCCNCC1COc2ccccc2O1)C(C)C (single isomer, unassigned) [VUFB 18007, 5-[(+)-2,3-dihydro-1,4-benzodioxin-2-ylmethylamino]-2-isopropyl-2- -(2-methylphenyl) valeronitrite]
decrease in diastolic blood pressure (DBP) (blood pressure [1]; [14]): -66 per cents
decrease in systolic blood pressure (SBP) (blood pressure [1]; [14]): -47 per cents
decrease in diastolic blood pressure (DBP) (blood pressure [1]; [15]): -41 per cents
decrease in systolic blood pressure (SBP) (blood pressure [1]; [15]): -33 per cents
decrease in diastolic blood pressure (DBP) (blood pressure [1]; [16]): -25 per cents
decrease in systolic blood pressure (SBP) (blood pressure [1]; [16]): -27 per cents
decrease in diastolic blood pressure (DBP) (blood pressure [1]; [17]): -19 per cents
decrease in systolic blood pressure (SBP) (blood pressure [1]; [17]): -22 per cents
decrease in diastolic blood pressure (DBP) (blood pressure [1]; [18]): -12 per cents
decrease in systolic blood pressure (SBP) (blood pressure [1]; [18]): -17 per cents
IC50 (calcium channel): 15 µM

Structure (SMILES): Cc1ccccc1C(C#N)(CCCNCC1COc2ccccc2O1)C(C)C (single isomer, unassigned) [VUFB 18018, 5-[(-)-2,3-dihydro-1,4-benzodioxin-2-ylmethylamino]-2-isopropyl-2- -(2-methylphenyl) valeronitrile]
decrease in diastolic blood pressure (DBP) (blood pressure [1]; [14]): -54 per cents
decrease in systolic blood pressure (SBP) (blood pressure [1]; [14]): -40 per cents
decrease in diastolic blood pressure (DBP) (blood pressure [1]; [15]): -46 per cents
decrease in systolic blood pressure (SBP) (blood pressure [1]; [15]): -42 per cents
decrease in diastolic blood pressure (DBP) (blood pressure [1]; [16]): -29 per cents
decrease in systolic blood pressure (SBP) (blood pressure [1]; [16]): -30 per cents
decrease in diastolic blood pressure (DBP) (blood pressure [1]; [17]): -24 per cents
decrease in systolic blood pressure (SBP) (blood pressure [1]; [17]): -22 per cents
decrease in diastolic blood pressure (DBP) (blood pressure [1]; [18]): -22 per cents
decrease in systolic blood pressure (SBP) (blood pressure [1]; [18]): -21 per cents
IC50 (calcium channel): 15 µM

Structure (SMILES): COc1ccc(C(C#N)(CCCNCC2COc3ccccc3O2)C(C)C)cc1OC (single isomer, unassigned) [VUFB 18019, 5-[(+)-2,3-dihydro-1,4-benzodioxin-2-ylmethylamino]-2-(3,4-dimethoxyphenyl)-2-isopropyl valeronitrile]
decrease in diastolic blood pressure (DBP) (blood pressure [1]; [19]): -54 per cents
decrease in systolic blood pressure (SBP) (blood pressure [1]; [19]): -17 per cents
decrease in diastolic blood pressure (DBP) (blood pressure [1]; [20]): -32 per cents
decrease in systolic blood pressure (SBP) (blood pressure [1]; [20]): -32 per cents
decrease in diastolic blood pressure (DBP) (blood pressure [1]; [21]): -8 per cents
decrease in systolic blood pressure (SBP) (blood pressure [1]; [21]): -26 per cents
decrease in diastolic blood pressure (DBP) (blood pressure [1]; [22]): -14 per cents
decrease in systolic blood pressure (SBP) (blood pressure [1]; [22]): -16 per cents
decrease in diastolic blood pressure (DBP) (blood pressure [1]; [23]): -8 per cents
decrease in systolic blood pressure (SBP) (blood pressure [1]; [23]): -14 per cents
IC50 (calcium channel): 16 µM

Structure (SMILES): O=C1CCc2cc(OCCCCc3nnnn3C3CCCCC3)ccc2N1 [Cilostazol, reference compound]
minimal effective dose [3]: 25 mg/kg

Further lines, with some results ahead:

IC50 (α-adrenergic): 76 µM
IC50 (calcium channel): 8.5 µM
Structure (SMILES): CC(C)C(C#N)(CCCNCC1COc2ccccc2O1)c1ccccc1 (racemic) [VUFB 18087, 5-(2,3-dihydro-1,4-benzodioxin-2-ylmethylamino)-2-phenyl-2-isopropyl valeronitrile]
decrease in diastolic blood pressure (DBP) (blood pressure [1]; [4]): -37 per cents
decrease in systolic blood pressure (SBP) (blood pressure [1]; [4]): -33 per cents
decrease in diastolic blood pressure (DBP) (blood pressure [1]; [5]): -27 per cents
decrease in systolic blood pressure (SBP) (blood pressure [1]; [5]): -29 per cents
decrease in diastolic blood pressure (DBP) (blood pressure [1]; [6]): -27 per cents
decrease in systolic blood pressure (SBP) (blood pressure [1]; [6]): -29 per cents
decrease in diastolic blood pressure (DBP) (blood pressure [1]; [7]): -13 per cents
decrease in systolic blood pressure (SBP) (blood pressure [1]; [7]): -19 per cents
decrease in diastolic blood pressure (DBP) (blood pressure [1]; [8]): -13 per cents
decrease in systolic blood pressure (SBP) (blood pressure [1]; [8]): -4 per cents
decrease in diastolic blood pressure (DBP) (blood pressure [1]; [9]): -62 per cents
decrease in systolic blood pressure (SBP) (blood pressure [1]; [9]): -49 per cents
decrease in diastolic blood pressure (DBP) (blood pressure [1]; [10]): -31 per cents
decrease in systolic blood pressure (SBP) (blood pressure [1]; [10]): -32 per cents
decrease in diastolic blood pressure (DBP) (blood pressure [1]; [11]): -31 per cents
decrease in systolic blood pressure (SBP) (blood pressure [1]; [11]): -31 per cents
decrease in diastolic blood pressure (DBP) (blood pressure [1]; [12]): -26 per cents
decrease in systolic blood pressure (SBP) (blood pressure [1]; [12]): -27 per cents
decrease in diastolic blood pressure (DBP) (blood pressure [1]; [13]): -26 per cents
decrease in systolic blood pressure (SBP) (blood pressure [1]; [13]): -22 per cents
decrease in diastolic blood pressure (DBP) (blood pressure [2]; 0.4 mg/kg, 1 min): -32 per cents
decrease in systolic blood pressure (SBP) (blood pressure [2]; 0.4 mg/kg, 1 min): -10 per cents
decrease in diastolic blood pressure (DBP) (blood pressure [2]; 0.4 mg/kg, 5 min): -16 per cents
decrease in systolic blood pressure (SBP) (blood pressure [2]; 0.4 mg/kg, 5 min): -19 per cents
decrease in diastolic blood pressure (DBP) (blood pressure [2]; 0.4 mg/kg, 30 min): -18 per cents
decrease in systolic blood pressure (SBP) (blood pressure [2]; 0.4 mg/kg, 30 min): -17 per cents
decrease in diastolic blood pressure (DBP) (blood pressure [2]; 0.4 mg/kg, 60 min): -16 per cents
decrease in systolic blood pressure (SBP) (blood pressure [2]; 0.4 mg/kg, 60 min): -17 per cents
decrease in diastolic blood pressure (DBP) (blood pressure [2]; 0.4 mg/kg, 180 min): -8 per cents
decrease in systolic blood pressure (SBP) (blood pressure [2]; 0.4 mg/kg, 180 min): -14 per cents
decrease in diastolic blood pressure (DBP) (blood pressure [2]; 4.0 mg/kg, 1 min): -58 per cents
decrease in systolic blood pressure (SBP) (blood pressure [2]; 4.0 mg/kg, 1 min): -45 per cents
decrease in diastolic blood pressure (DBP) (blood pressure [2]; 4.0 mg/kg, 5 min): -43 per cents
decrease in systolic blood pressure (SBP) (blood pressure [2]; 4.0 mg/kg, 5 min): -45 per cents
decrease in diastolic blood pressure (DBP) (blood pressure [2]; 4.0 mg/kg, 30 min): -29 per cents
decrease in systolic blood pressure (SBP) (blood pressure [2]; 4.0 mg/kg, 30 min): -30 per cents
decrease in diastolic blood pressure (DBP) (blood pressure [2]; 4.0 mg/kg, 60 min): -29 per cents
decrease in systolic blood pressure (SBP) (blood pressure [2]; 4.0 mg/kg, 60 min): -31 per cents
decrease in diastolic blood pressure (DBP) (blood pressure [2]; 4.0 mg/kg, 180 min): -32 per cents
decrease in systolic blood pressure (SBP) (blood pressure [2]; 4.0 mg/kg, 180 min): -28 per cents

IC50 (calcium channel): 25 µM
Structure (SMILES): COc1ccc(C(C#N)(CCCNCC2COc3ccccc3O2)C(C)C)cc1OC (single isomer, unassigned) [VUFB 18020, 5-[(-)-2,3-dihydro-1,4-benzodioxin-2-ylmethylamino]-2-(3,4-dimeth-oxyphenyl)-2-isopropyl valeronitrile]
decrease in diastolic blood pressure (DBP) (blood pressure [1]; [19]): -63 per cents
decrease in systolic blood pressure (SBP) (blood pressure [1]; [19]): -46 per cents
decrease in diastolic blood pressure (DBP) (blood pressure [1]; [20]): -63 per cents
decrease in systolic blood pressure (SBP) (blood pressure [1]; [20]): -58 per cents
decrease in diastolic blood pressure (DBP) (blood pressure [1]; [21]): -45 per cents
decrease in systolic blood pressure (SBP) (blood pressure [1]; [21]): -43 per cents
decrease in diastolic blood pressure (DBP) (blood pressure [1]; [22]): -37 per cents
decrease in systolic blood pressure (SBP) (blood pressure [1]; [22]): -35 per cents
decrease in diastolic blood pressure (DBP) (blood pressure [1]; [23]): -34 per cents
decrease in systolic blood pressure (SBP) (blood pressure [1]; [23]): -40 per cents
